From patent US8993574B2, “Pyrrole antifungal agents” (F2G Ltd, priority 2008, dated 2015)
Converted amounts (≈) assume the structure as drawn.

Assays:
Type in all cases: cell-based
[1] = test system: Aspergillus flavus; test: MIC, YAG medium; conditions: 24 h at 35° C, MIC banded into grades; for MIC: Aspergillus flavus, 24 h, read-out: MIC grade, A. flavus
Method in brief: (§1)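 MICs (mg/L) derive from the lowest compound concentration suppressing spore outgrowth by >70% against a drug-free well, by OD 485 nm. Conditions: YAG medium, 1−2×10^4 cfu/mL, 24 h, 35° C, two-fold dilutions from 50 mg/L.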

[2] = test system: Aspergillus fumigatus AF210; test: MIC, YAG medium; conditions: 24 h at 35° C, MIC banded into grades; for MIC: Aspergillus fumigatus, read-out: MIC grade, A. fumigatus 210
Method in brief: as §1

[3] = test system: Aspergillus fumigatus AF293; test: MIC, YAG medium; conditions: 24 h at 35° C, MIC banded into grades; for MIC: Aspergillus fumigatus, read-out: MIC grade, A. fumigatus
Method in brief: as §1

[4] = test system: Aspergillus niger; test: MIC, YAG medium; conditions: 24 h at 35° C, MIC banded into grades; for MIC: Aspergillus niger, read-out: MIC grade, A. niger
Method in brief: as §1

[5] = test system: Aspergillus terreus AT49; test: MIC, YAG medium; conditions: 24 h at 35° C, MIC banded into grades; for MIC: Aspergillus terreus, read-out: MIC grade, A. terreus 49
Method in brief: as §1

[6] = test system: Aspergillus terreus AT4; test: MIC, YAG medium; conditions: 24 h at 35° C, MIC banded into grades; for MIC: Aspergillus terreus, read-out: MIC grade, A. terreus
Method in brief: as §1

[7] = test system: Aspergillus flavus; test: MIC, RPMI medium; conditions: MIC banded into grades; for MIC: Aspergillus flavus, read-out: MIC grade, A. flavus
Method in brief: (§2)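 RPMI (2% glucose, 0.135 M MOPS, pH 7.0) microdilution; drug 50-0.05 mg/L doubling series; inoculum 1−2×10^4 cfu/mL; 24-48 h, 35° C; OD485; MIC = lowest conc. with >80% inhibition vs drug-free control.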

[8] = test system: Aspergillus fumigatus AF210; test: MIC, RPMI medium; conditions: for MIC grade, A. fumigatus 210: MIC banded into grades; for MIC: Aspergillus fumigatus, AF210, MIC banded into grades, read-out: MIC grade, A. fumigatus 210
Method in brief: as §2

[9] = test system: Aspergillus fumigatus AF293; test: MIC, RPMI medium; conditions: for MIC grade, A. fumigatus: MIC banded into grades; for MIC: Aspergillus fumigatus, AF293, MIC banded into grades, read-out: MIC grade, A. fumigatus
Method in brief: as §2

[10] = test system: Aspergillus niger; test: MIC, RPMI medium; conditions: MIC banded into grades; for MIC: Aspergillus niger, read-out: MIC grade, A. niger
Method in brief: as §2

[11] = test system: Aspergillus terreus AT49; test: MIC, RPMI medium; conditions: for MIC grade, A. terreus 49: MIC banded into grades; for MIC: Aspergillus terreus, AT49, MIC banded into grades, read-out: MIC grade, A. terreus 49
Method in brief: as §2

[12] = test system: Aspergillus terreus AT4; test: MIC, RPMI medium; conditions: for MIC grade, A. terreus: MIC banded into grades; for MIC: Aspergillus terreus, AT4, MIC banded into grades, read-out: MIC grade, A. terreus
Method in brief: as §2

Compound | MIC [1] [µg/mL] | MIC [2] [µg/mL] | MIC [3] [µg/mL] | MIC [4] [µg/mL] | MIC [5] [µg/mL] | MIC [6] [µg/mL] | MIC [7] [µg/mL] | MIC [8] [µg/mL] | MIC [9] [µg/mL] | MIC [10] [µg/mL] | MIC [11] [µg/mL] | MIC [12] [µg/mL] | also measured
COC(=O)Cn1cccc1C(=O)C(=O)Nc1ccc(N2CCN(c3cc(C)cc(C)n3)CC2)cc1 [Example 61, (2-{4-[4-(4,6-Dimethyl-pyridin-2-yl)-piperazin-1-yl]-phenylaminooxalyl}-pyrrol-1-yl)-acetic acid methyl ester] | – | – | – | – | – | – | – | – | – | – | – | – | MIC grade, A. flavus [1]: 1 (a grade of 1 represents an MIC of greater than 10 mg/L); MIC grade, A. fumigatus 210 [2]: 2 (A grade of 2 represents an MIC of from 1 to 10 mg/L); MIC grade, A. fumigatus [3]: 1 (a grade of 1 represents an MIC of greater than 10 mg/L); MIC grade, A. niger [4]: 1 (a grade of 1 represents an MIC of greater than 10 mg/L); MIC grade, A. terreus 49 [5]: 1 (a grade of 1 represents an MIC of greater than 10 mg/L); MIC grade, A. terreus [6]: 1 (a grade of 1 represents an MIC of greater than 10 mg/L); MIC grade, A. flavus [7]: 1 (a grade of 1 represents an MIC of greater than 10 mg/L); MIC grade, A. fumigatus 210 [8]: 2 (A grade of 2 represents an MIC of from 1 to 10 mg/L); MIC grade, A. fumigatus [9]: 1 (a grade of 1 represents an MIC of greater than 10 mg/L); MIC grade, A. niger [10]: 1 (a grade of 1 represents an MIC of greater than 10 mg/L); MIC grade, A. terreus 49 [11]: 1 (a grade of 1 represents an MIC of greater than 10 mg/L); MIC grade, A. terreus [12]: 1 (a grade of 1 represents an MIC of greater than 10 mg/L)
Cc1cc(C)nc(N2CCN(c3ccc(NC(=O)C(=O)c4c(-c5ccccc5)cc(C)n4C)cc3COCCN(C)C)CC2)c1 [Example 17, N-{3-(2-Dimethylamino-ethoxymethyl)-4-[4-(4,6-dimethyl-pyridin-2-yl)-piperazin-1-yl]-phenyl}-2-(1,5-dimethyl-3-phenyl-1H-pyrrol-2-yl)-2-oxo-acetamide] | 1 to 10 (≈ 1.64 to 16.4 µM) | 1 to 10 (≈ 1.64 to 16.4 µM) | 1 to 10 (≈ 1.64 to 16.4 µM) | 1 to 10 (≈ 1.64 to 16.4 µM) | 1 to 10 (≈ 1.64 to 16.4 µM) | 1 to 10 (≈ 1.64 to 16.4 µM) | > 10 | > 10 | > 10 | > 10 | > 10 | > 10 | –
CCCOCn1c(C)cc(-c2ccccc2)c1C(=O)C(=O)Nc1ccc(N2CCN(c3cc(C)cc(C)n3)CC2)cc1 [Example 139, N-{4-[4-(4,6-Dimethyl-pyridin-2-yl)-piperazin-1-yl]-phenyl}-2-(5-methyl-3-phenyl-1-propoxymethyl-1H-pyrrol-2-yl)-2-oxo-acetamide] | 1 to 10 (≈ 1.77 to 17.7 µM) | < 1 | < 1 | < 1 | < 1 | 1 to 10 (≈ 1.77 to 17.7 µM) | > 10 | 1 to 10 (≈ 1.77 to 17.7 µM) | 1 to 10 (≈ 1.77 to 17.7 µM) | 1 to 10 (≈ 1.77 to 17.7 µM) | 1 to 10 (≈ 1.77 to 17.7 µM) | 1 to 10 (≈ 1.77 to 17.7 µM) | –
COCCn1c(C)cc(-c2ccccc2)c1C(=O)C(=O)Nc1ccc(N2CCOCC2)cc1F [Example 117, N-(2-Fluoro-4-morpholin-4-yl-phenyl)-2-[1-(2-methoxy-ethyl)-5-methyl-3-phenyl-1H-pyrrol-2-yl]-2-oxo-acetamide] | < 1 | 1 to 10 (≈ 2.15 to 21.5 µM) | < 1 | < 1 | < 1 | < 1 | > 10 | 1 to 10 (≈ 2.15 to 21.5 µM) | 1 to 10 (≈ 2.15 to 21.5 µM) | < 1 | > 10 | 1 to 10 (≈ 2.15 to 21.5 µM) | –
CCOCCn1c(C)cc(-c2ccccc2)c1C(=O)C(=O)Nc1ccc(N2CCN(c3cc(C)cc(C)n3)CC2)cc1 [Example 27, N-{4-[4-(4,6-Dimethyl-pyridin-2-yl)-piperazin-1-yl]-phenyl}-2-[1-(2-ethoxy-ethyl)-5-methyl-3-phenyl-1H-pyrrol-2-yl]-2-oxo-acetamide] | > 10 | < 1 | < 1 | 1 to 10 (≈ 1.77 to 17.7 µM) | 1 to 10 (≈ 1.77 to 17.7 µM) | 1 to 10 (≈ 1.77 to 17.7 µM) | > 10 | 1 to 10 (≈ 1.77 to 17.7 µM) | 1 to 10 (≈ 1.77 to 17.7 µM) | 1 to 10 (≈ 1.77 to 17.7 µM) | > 10 | > 10 | –
Cc1cc(-c2ccccc2)c(C(=O)C(=O)Nc2cccc3cccnc23)n1C [Example 31, 2-(1,5-Dimethyl-3-phenyl-1H-pyrrol-2-yl)-2-oxo-N-quinolin-8-yl-acetamide] | < 1 | 1 to 10 (≈ 2.71 to 27.1 µM) | 1 to 10 (≈ 2.71 to 27.1 µM) | 1 to 10 (≈ 2.71 to 27.1 µM) | < 1 | < 1 | 1 to 10 (≈ 2.71 to 27.1 µM) | 1 to 10 (≈ 2.71 to 27.1 µM) | 1 to 10 (≈ 2.71 to 27.1 µM) | 1 to 10 (≈ 2.71 to 27.1 µM) | < 1 | < 1 | –
COCCn1c(C)cc(-c2ccccc2)c1C(=O)C(=O)Nc1ccc(N2CCCCC2)c(F)c1 [Example 119, N-(3-Fluoro-4-piperdin-1-yl-phenyl)-2-[1-(2-methoxy-ethyl)-5-methyl-3-phenyl-1H-pyrrol-2-yl]-2-oxo-acetamide] | – | – | – | – | – | – | – | – | – | – | – | – | MIC grade, A. flavus [1]: 2 (A grade of 2 represents an MIC of from 1 to 10 mg/L); MIC grade, A. fumigatus 210 [2]: 3 (A grade of 3 represents an MIC of less than 1 mg/L); MIC grade, A. fumigatus [3]: 3 (A grade of 3 represents an MIC of less than 1 mg/L); MIC grade, A. niger [4]: 3 (A grade of 3 represents an MIC of less than 1 mg/L); MIC grade, A. terreus 49 [5]: 3 (A grade of 3 represents an MIC of less than 1 mg/L); MIC grade, A. terreus [6]: 3 (A grade of 3 represents an MIC of less than 1 mg/L); MIC grade, A. flavus [7]: 2 (A grade of 2 represents an MIC of from 1 to 10 mg/L); MIC grade, A. fumigatus 210 [8]: 3 (A grade of 3 represents an MIC of less than 1 mg/L); MIC grade, A. fumigatus [9]: 3 (A grade of 3 represents an MIC of less than 1 mg/L); MIC grade, A. niger [10]: 3 (A grade of 3 represents an MIC of less than 1 mg/L); MIC grade, A. terreus 49 [11]: 2 (A grade of 2 represents an MIC of from 1 to 10 mg/L); MIC grade, A. terreus [12]: 3 (A grade of 3 represents an MIC of less than 1 mg/L)
Cc1cc(C)nc(N2CCN(c3ccc(NC(=O)C(=O)c4c(-c5ccccc5)cc(C)n4Cc4ccncc4)cc3)CC2)c1 [Example 102, N-{4-[4-(4,6-Dimethyl-pyridin-2-yl)-piperazin-1-yl]-phenyl}-2-(5-methyl-3-phenyl-1-pyridin-4-ylmethyl-1H-pyrrol-2-yl)-2-oxo-acetamide] | > 10 | > 10 | 1 to 10 (≈ 1.71 to 17.1 µM) | > 10 | > 10 | > 10 | > 10 | > 10 | > 10 | > 10 | > 10 | > 10 | –
Cc1cc(C)nc(N2CCN(c3ccc(NC(=O)C(=O)c4c(-c5ccccc5)cc(C)n4CCOc4ccccc4)cc3)CC2)c1 [Example 134, N-{4-[4-(4,6-Dimethyl-pyridin-2-yl)-piperazin-1-yl]-phenyl}-2-[5-methyl-1-(2-phenoxy-ethyl)-3-phenyl-1H-pyrrol-2-yl]-2-oxo-acetamide] | 1 to 10 (≈ 1.63 to 16.3 µM) | > 10 | 1 to 10 (≈ 1.63 to 16.3 µM) | > 10 | 1 to 10 (≈ 1.63 to 16.3 µM) | 1 to 10 (≈ 1.63 to 16.3 µM) | > 10 | > 10 | > 10 | > 10 | > 10 | > 10 | –
